Active and inactive are the calls of the source. The rule behind the calls is not given here.
Legend:
Rattus norvegicus [1] = assay: Toxicity in Wistar rat assessed as marked ptosis at 5 to 15 mg/kg, ip; assay type: organism-based; parameters: dose 5-15 mg/kg, route intraperitoneal; conditions: in vivo
Rattus norvegicus [2] = assay: Toxicity in Wistar rat assessed as decrease in respiration at 5 to 15 mg/kg, ip; assay type: organism-based; parameters: dose 5-15 mg/kg, route intraperitoneal; scale not given: the % may be the effect or the level left; conditions: in vivo
Mus musculus [3] = assay: CNS depressant activity in ip dosed Swiss-Webster mouse assessed as spontaneous motor activity by rotarod assay; assay type: functional
[4] = Toxicity in ip dosed Swiss-Webster mouse after 24 hrs; assay type: organism-based; conditions: in vivo
Rattus norvegicus [5] = assay: Toxicity in Wistar rat assessed as decrease in body temperature at 5 to 15 mg/kg, ip; assay type: organism-based; parameters: dose 5-15 mg/kg, route intraperitoneal; conditions: in vivo
Rattus norvegicus [6] = assay: Toxicity in Wistar rat assessed as decrease in heart rate at 5 to 15 mg/kg, ip; assay type: organism-based; parameters: dose 5-15 mg/kg, route intraperitoneal; conditions: in vivo
Mus musculus [7] = assay: Anticonvulsant activity in Swiss-Webster mouse assessed as protection against strychnine-induced seizure at 10 to 20 mg/kg, ip; assay type: functional, organism-based
Mus musculus [8] = assay: Anticonvulsant activity in Swiss-Webster mouse assessed as protection against pentylenetetrazole-induced seizure at 10 to 20 mg/kg, ip; assay type: functional, organism-based
Mus musculus [9] = assay: Safety index, ratio of LD50 for toxicity in Swiss-Webster mouse to ED50 for CNS depressant activity in ip dosed Swiss-Webster by rotarod assay; assay type: functional
Mus musculus [10] = assay: Anticonvulsant activity against maximal electroshock-induced seizure in Swiss-Webster mouse assessed as prolongation of time for onset of convulsion at 50 to 200 mg/kg, ip relative to control; assay type: functional; conditions: dose mg/kg 50-200; route intraperitoneal
Mus musculus [11] = assay: Anticonvulsant activity against pentylenetetrazole-induced seizure in Swiss-Webster mouse assessed as prolongation of time for onset of convulsion at 50 to 200 mg/kg, ip relative to control; assay type: functional
Rattus norvegicus [12] = assay: Toxicity in Wistar rat assessed as decrease in respiration at 50 to 200 mg/kg, ip; assay type: organism-based; parameters: dose 50-200 mg/kg, route intraperitoneal; scale not given: the % may be the effect or the level left; conditions: in vivo
Rattus norvegicus [13] = assay: Toxicity in Wistar rat assessed as decrease in heart rate at 50 to 200 mg/kg, ip; assay type: organism-based; parameters: dose 50-200 mg/kg, route intraperitoneal; conditions: in vivo
Rattus norvegicus [14] = assay: Toxicity in Wistar rat assessed as decrease in body temperature at 50 to 200 mg/kg, ip; assay type: organism-based; parameters: dose 50-200 mg/kg, route intraperitoneal; conditions: in vivo
Mus musculus [15] = assay: Anticonvulsant activity against strychnine-induced seizure in Swiss-Webster mouse assessed as prolongation of time for onset of convulsion at 50 to 200 mg/kg, ip relative to control; assay type: functional; conditions: dose mg/kg 50-200; route intraperitoneal
Rattus norvegicus [16] = assay: Toxicity in Wistar rat assessed as marked ptosis at 50 to 200 mg/kg, ip; assay type: organism-based; parameters: dose 50-200 mg/kg, route intraperitoneal; conditions: in vivo
Mus musculus [17] = assay: CNS depressant activity in Swiss-Webster mouse assessed as spontaneous motor activity at 50 to 200 mg/kg, ip by rotarod assay relative to control; assay type: functional; conditions: dose mg/kg 50-200; route intraperitoneal
Mus musculus [18] = assay: CNS depressant activity in Swiss-Webster mouse assessed as forced motor activity at 50 to 200 mg/kg, ip by rotarod assay relative to control; assay type: functional; conditions: dose mg/kg 50-200; route intraperitoneal

COC(=O)N1CCN(C)C1=S
Activity (Rattus norvegicus [1]): Non-toxic
Activity (Rattus norvegicus [2]): 20%
ED50 (Mus musculus [3]): 18 mg/kg
LD50 at 24 h [4]: 25 mg/kg
T (Rattus norvegicus [5]): 1 °C
Activity (Rattus norvegicus [6]): 8 bpm

O=C1NC(=O)C(c2ccccc2)(c2ccccc2)N1 [PHENYTOIN]
Activity (Mus musculus [7]): inactive
Activity (Mus musculus [8]): inactive
ED50 (Mus musculus [3]): 10.7 mg/kg

COC(=O)N1CCN=C1SC
Ratio LD50/ED50 (Mus musculus [9]): 16.1
LD50 at 24 h [4]: > 1000 mg/kg
Activity (Mus musculus [10]): 106%
Activity (Mus musculus [11]): Active

CSC1=NCCN1C(C)=O
Activity (Rattus norvegicus [12]): 50%
Activity (Rattus norvegicus [13]): 25 bpm
T (Rattus norvegicus [14]): 3 °C
ED50 (Mus musculus [3]): 150 mg/kg
LD50 at 24 h [4]: > 1000 mg/kg
Activity (Mus musculus [15]): 48%
Activity (Rattus norvegicus [16]): Toxic
Activity (Mus musculus [10]): 90%
Activity (Mus musculus [11]): Active

COC(=O)N1CCN=C1SCC(=O)c1ccccc1
inhibition (INH) (Mus musculus [17]): 85%
LD50 at 24 h [4]: > 1000 mg/kg
Activity (Mus musculus [10]): 75%
inhibition (INH) (Mus musculus [18]): 40%
Activity (Mus musculus [11]; dose mg/kg 50-200, route intraperitoneal): 134%

CC(=O)N1CCN(C)C1=S
Ratio LD50/ED50 (Mus musculus [9]): 0.5
LD50 at 24 h [4]: 40 mg/kg

From ChEMBL document CHEMBL3272311, “Syntheses and pharmacological activity of substituted imidazolidinethiones and thiomidazolines” (J Med Chem, 1977)
